Results on 34 compounds are retold here after ChEMBL document CHEMBL1128887, “3-benzyl-quinolones: Novel, potent inhibitors of mammalian topoisomerase II” (Bioorg Med Chem Lett, 1995).

Structures are written as SMILES. pEC50, pIC50: −log10 of the molar value.

The subject of one assay is P388. The experiment in a line: In vitro cytotoxicity against P388 mouse leukemia cells. The format is functional, cell-based.
In the next assay the target is DNA topoisomerase II (Homo sapiens, UniProt P11388+Q02880). The experiment in a line: Inhibitory activity against HeLa cell Topoisomerase II. It counts as cell-based.
Assay [1] has as its system Mus musculus. The experiment in a line: In vivo antitumor activity was measured as maximum tolerated dose in BDF1 male mice implanted with murine pancreatic adenocarcinoma (Panc 03) at dose schedule qd 3-11 administered iv. It counts as functional.
Assay [2] relates to Mus musculus. Description: In vivo antitumor activity was measured as tumor growth inhibition in BDF1 male mice implanted with murine pancreatic adenocarcinoma (Panc 03) at dose schedule qd 3-11 administered iv. It counts as functional.
Assay [3] deals with Mus musculus. Description: In vivo antitumor activity was measured as tumor growth inhibition in BDF1 male mice implanted with murine pancreatic adenocarcinoma (Panc 03) at dose schedule qd 3-9 administered sc. The format is functional.
The test system of assay [4] is Mus musculus. Description: In vivo antitumor activity was measured as maximum tolerated dose in BDF1 male mice implanted with murine pancreatic adenocarcinoma (Panc 03) at dose schedule qd 3-9 administered sc. It counts as functional.
The test system of assay [5] is Mus musculus. Description: In vivo antitumor activity was measured as tumor growth inhibition in BDF1 male mice implanted with murine pancreatic adenocarcinoma (Panc 03) at dose schedule qd 4-11 administered iv. The format is functional.
Assay [6] relates to Mus musculus. The experiment in a line: In vivo antitumor activity was measured as maximum tolerated dose in BDF1 male mice implanted with murine pancreatic adenocarcinoma (Panc 03) at dose schedule qd 4-11 administered iv. The format is functional.
The target in another assay is Nucleic Acid. The experiment in a line: Compound was evaluated for its activity against bacterial DNA gyrase. The format is nucleic-acid assay, Bacteria.
Assay [7] deals with Mus musculus. The experiment in a line: In vivo antitumor activity was measured as tumor growth inhibition in BDF1 male mice implanted with murine pancreatic adenocarcinoma (Panc 03) at dose schedule qd 3,4,7,10 administered iv. The format is functional.
The subject of assay [8] is Mus musculus. Description: In vivo antitumor activity was measured as maximum tolerated dose in BDF1 male mice implanted with murine pancreatic adenocarcinoma (Panc 03) at dose schedule qd 3,4,7,10 administered iv. It counts as functional.
Assay [9] deals with Mus musculus. The experiment in a line: In vivo antitumor activity was measured as maximum tolerated dose in BDF1 male mice implanted with murine pancreatic adenocarcinoma (Panc 03) at dose schedule qd 3, bid 4-9; sc bid 10,11 administered iv. The format is functional.
The test system of assay [10] is Mus musculus. Description: In vivo antitumor activity was measured as tumor growth inhibition in BDF1 male mice implanted with murine pancreatic adenocarcinoma (Panc 03) at dose schedule qd 3, bid 4-9; sc bid 10,11 administered iv. The format is functional.
Assay [11] has as its system Mus musculus. Description: In vivo antitumor activity was measured as tumor growth inhibition in BDF1 male mice implanted with murine pancreatic adenocarcinoma (Panc 03) at dose schedule qd 3-12 administered sc. It counts as functional.
Assay [12] concerns Mus musculus. Description: In vivo antitumor activity was measured as maximum tolerated dose in BDF1 male mice implanted with murine pancreatic adenocarcinoma (Panc 03) at dose schedule qd 3-12 administered sc. It counts as functional.
Assay [13] deals with Mus musculus. Description: In vivo antitumor activity was measured as tumor growth inhibition in BDF1 male mice implanted with murine pancreatic adenocarcinoma (Panc 03) at dose schedule qd 4-9 administered sc. The format is functional.
The subject of assay [14] is Mus musculus. Description: In vivo antitumor activity was measured as maximum tolerated dose in BDF1 male mice implanted with murine pancreatic adenocarcinoma (Panc 03) at dose schedule qd 4-9 administered sc. It counts as functional.
In assay [15] the test system is Mus musculus. Description: In vivo antitumor activity was measured as maximum tolerated dose in BDF1 male mice implanted with murine pancreatic adenocarcinoma (Panc 03) at dose schedule qd 4,6,8,10,12,14,16 administered iv. It counts as functional.
Assay [16] concerns Mus musculus. Description: In vivo antitumor activity was measured as tumor growth inhibition in BDF1 male mice implanted with murine pancreatic adenocarcinoma (Panc 03) at dose schedule qd 4,6,8,10,12,14,16 administered iv. The format is functional.

A word on the pIC50: it is the IC50 on a negative log10 scale, so that one unit is a factor of ten. High values mean a small IC50, low ones a large IC50. Usually EC50 stands for the midpoint of the concentration-response curve. A lower EC50 goes with higher potency in that assay. Take `COc1ccc(Cc2cn(C3CC3)c3c(F)c(-c4cc(C)nc(C)c4)c(F)cc3c2=O)cc1`: the pIC50 in the assay on P388 is 4.68. The compound also returned an EC50 on DNA topoisomerase II of 14 µM.

Consider `Cc1cc(-c2c(F)cc3c(=O)c(Cc4cccc5ccccc45)cn(C4CC4)c3c2F)cc(C)n1`, for which, at DNA topoisomerase II, the concentration giving a half-maximal response (EC50) was > 210 µM.

In the assay with P388, `Cc1cc(-c2c(F)cc3c(=O)c(Cc4c[nH]cn4)cn(C4CC4)c3c2F)cc(C)n1` had a negative logarithm of the IC50 (pIC50) of 6.41. On DNA topoisomerase II, this compound showed an EC50 of 1.6 µM. In turn, `Cc1cc(-c2c(F)cc3c(=O)c(Cc4ccccc4NC(=O)C(F)(F)F)cn(C4CC4)c3c2F)cc(C)n1` displayed an EC50 on DNA topoisomerase II of 4.7 µM. That is a single-digit micromolar value. What is called MTD is the largest dose that counted as tolerated. In general, T/C refers to the result in the treated group divided by that in the control group, in per cent. `Cc1cc(-c2c(F)cc3c(=O)c(Cc4ccccc4O)cn(C4CC4)c3c2F)cc(C)n1` showed an MTD with Mus musculus [1] of 225 mg/kg. In the assay on Mus musculus [2], this compound gave a T/C of 5%. In the assay on P388, the pIC50 was 6.17. This compound also had a concentration for a half-maximal effect (EC50) at DNA topoisomerase II of 0.33 µM. In the assay with P388, `Cc1cc(-c2c(F)cc3c(=O)c(Cc4cc(O)ccc4O)cn(C4CC4)c3c2F)cc(C)n1` had a pIC50 of 6.44. The concentration giving a half-maximal response (EC50) at DNA topoisomerase II was found to be 0.16 µM.

On to `Cc1cc(-c2c(F)cc3c(=O)ccn(C4CC4)c3c2F)cc(C)n1`, for which the T/C in the assay on Mus musculus [3] is >100%. The compound also yielded an MTD in the assay on Mus musculus [4] of 2410 mg/kg. In the assay with P388, `Cc1cc(-c2c(F)cc3c(=O)c(Cc4c(O)cc(O)cc4O)cn(C4CC4)c3c2F)cc(C)n1` showed a pIC50 of 6.33. On DNA topoisomerase II, this compound showed a half-maximal effective concentration (EC50) of 0.098 µM. The term pEC50 denotes the negative decadic logarithm of the EC50, by convention in mol/L. Read a low pEC50 as a high EC50. `Cc1cc(-c2c(F)cc3c(=O)c(Cc4c(O)cccc4O)cn(C4CC4)c3c2F)cc(C)n1` showed a T/C with Mus musculus [5] of 0%. Besides, the maximum tolerated dose (MTD) in the assay with Mus musculus [6] is 12 mg/kg. Further, in the assay on P388, the pIC50 was 6.60. The pEC50 on Nucleic Acid is 6.85. This compound returned an EC50 at DNA topoisomerase II of 0.096 µM. `Cc1cc(-c2c(F)cc3c(=O)c(Cc4ccncc4)cn(C4CC4)c3c2F)cc(C)n1` yielded an EC50 at DNA topoisomerase II of 9.1 µM. For `Cc1cc(-c2c(F)cc3c(=O)c(Cc4ccc[nH]4)cn(C4CC4)c3c2F)cc(C)n1`, the pIC50 with P388 is 6.03. The compound further displayed a concentration for a half-maximal effect (EC50) at DNA topoisomerase II of 5.1 µM. `Cc1cc(-c2c(F)cc3c(=O)c(Cc4ccccc4C(=O)O)cn(C4CC4)c3c2F)cc(C)n1`: the EC50 on DNA topoisomerase II turned out to be 200 µM. `Cc1cc(-c2c(F)cc3c(=O)c(Cc4ccc(O)cc4)cn(C4CC4)c3c2F)cc(C)n1` showed a negative-log IC50 (pIC50) in the assay with P388 of 5.82. The same compound displayed an EC50 at DNA topoisomerase II of 1.2 µM. `Cc1cc(-c2c(F)cc3c(=O)c(Cc4ccccc4NS(C)(=O)=O)cn(C4CC4)c3c2F)cc(C)n1` displayed a concentration for a half-maximal effect (EC50) at DNA topoisomerase II of 3.3 µM.

`Cc1cc(-c2c(F)cc3c(=O)c(Cc4ccc(N)cc4)cn(C4CC4)c3c2F)cc(C)n1`: the concentration giving a half-maximal response (EC50) on DNA topoisomerase II was determined as 7.2 µM. Turning to `CC(=O)Nc1ccccc1Cc1cn(C2CC2)c2c(F)c(-c3cc(C)nc(C)c3)c(F)cc2c1=O`, the EC50 at DNA topoisomerase II is 5.1 µM. The EC50 values of the last two compounds are within 1.5-fold of each other. As to `Cc1cc(-c2c(F)cc3c(=O)c(Cc4ccc(N(C)C)cc4)cn(C4CC4)c3c2F)cc(C)n1`, the EC50 on DNA topoisomerase II is > 210 µM. In the assay with P388, `Cc1cc(-c2c(F)cc3c(=O)c(Cc4cccc(O)c4O)cn(C4CC4)c3c2F)cc(C)n1` had a negative-log IC50 (pIC50) of 6.06. Further, the half-maximal effective concentration (EC50) on DNA topoisomerase II stood at 0.36 µM.

As to `Cc1cc(-c2c(F)cc3c(=O)c(-c4ccccc4)cn(C4CC4)c3c2F)cc(C)n1`, on DNA topoisomerase II, the EC50 is > 120 µM. Regarding `Cc1cc(-c2c(F)cc3c(=O)c(CC4CCCCC4)cn(C4CC4)c3c2F)cc(C)n1`, at DNA topoisomerase II, the EC50 was > 230 µM. In turn, `Cc1cc(-c2c(F)cc3c(=O)c(Cc4ccccc4N)cn(C4CC4)c3c2F)cc(C)n1` showed a pIC50 in the assay on P388 of 5.68. This compound also came in with an EC50 at DNA topoisomerase II of 2.1 µM.

In the case of `Cc1cc(-c2c(F)cc3c(=O)c(Cc4ccccn4)cn(C4CC4)c3c2F)cc(C)n1`, the EC50 on DNA topoisomerase II was 12 µM. Compound `COc1ccccc1Cc1cn(C2CC2)c2c(F)c(-c3cc(C)nc(C)c3)c(F)cc2c1=O` had a pIC50 with P388 of 4.43. The compound also had an EC50 on DNA topoisomerase II of 14 µM. `Cc1cc(-c2c(F)cc3c(=O)c(Cc4ccc(Cl)cc4)cn(C4CC4)c3c2F)cc(C)n1` gave a negative-log IC50 (pIC50) in the assay with P388 of 4.70. Further, on DNA topoisomerase II, the half-maximal effective concentration (EC50) was determined as 7.7 µM.

Compound `Cc1cc(-c2c(F)cc3c(=O)c(Cc4ccc(O)cc4O)cn(C4CC4)c3c2F)cc(C)n1` registered a T/C in the assay with Mus musculus [7] of 73%. The negative logarithm of the IC50 (pIC50) in the assay with P388 is 6.68. The EC50 on DNA topoisomerase II was determined as 0.16 µM. Moreover, the MTD in the assay on Mus musculus [8] is 20 mg/kg. With `Cc1cc(-c2c(F)cc3c(=O)c(Cc4cccc(O)c4)cn(C4CC4)c3c2F)cc(C)n1`, in the assay on P388, the negative-log IC50 (pIC50) was 5.66. The same compound yielded an EC50 on DNA topoisomerase II of 1.1 µM. Regarding `COc1cccc(Cc2cn(C3CC3)c3c(F)c(-c4cc(C)nc(C)c4)c(F)cc3c2=O)c1`, the negative-log IC50 (pIC50) in the assay with P388 was 4.70. The same compound returned an EC50 on DNA topoisomerase II of 14 µM.

On to `CC(=O)Nc1ccc(Cc2cn(C3CC3)c3c(F)c(-c4cc(C)nc(C)c4)c(F)cc3c2=O)cc1`, for which, on DNA topoisomerase II, the half-maximal effective concentration (EC50) was > 100 µM. On to `Cc1cc(-c2c(F)cc3c(=O)c(CCc4ccccc4)cn(C4CC4)c3c2F)cc(C)n1`, for which, on DNA topoisomerase II, the 50% effective concentration (EC50) is > 120 µM. The compound `Cc1cc(-c2c(F)cc3c(=O)c(Cc4ncc[nH]4)cn(C4CC4)c3c2F)cc(C)n1` registered an MTD in the assay on Mus musculus [9] of 88 mg/kg. The pIC50 with P388 was 5.96. At DNA topoisomerase II, this compound showed an EC50 of 1.1 µM. In addition, in the assay on Mus musculus [10], the T/C was 21%.

With `Cc1cc(-c2c(F)cc3c(=O)c(Cc4ccccc4)cn(C4CC4)c3c2F)cc(C)n1`, the T/C with Mus musculus [11] was >100%. In the assay with Mus musculus [12], the MTD came out at 3749 mg/kg. For the same compound, in the assay with P388, the negative-log IC50 (pIC50) was 5.14. Also, on DNA topoisomerase II, the EC50 turned out to be 3.9 µM. For `COc1cc(NS(C)(=O)=O)ccc1Nc1c2ccccc2nc2ccccc12` [AMSACRINE], the T/C with Mus musculus [13] is recorded as 0%. In the assay with Mus musculus [14], this compound came in with an MTD of 48 mg/kg.

`COc1cc([C@@H]2c3cc4c(cc3[C@@H](O[C@@H]3O[C@@H]5CO[C@@H](C)O[C@H]5[C@H](O)[C@H]3O)[C@H]3COC(=O)[C@H]23)OCO4)cc(OC)c1O` [ETOPOSIDE]: in the assay on Mus musculus [15], the MTD turned out to be 96 mg/kg. Further, in the assay on Mus musculus [16], the T/C came out at 3%. In turn, `Cc1cc(-c2c(F)cc3c(=O)c(C(=O)O)cn(C4CC4)c3c2F)cc(C)n1` [WIN-57294] displayed a T/C in the assay with Mus musculus [11] of 31%. In the assay on Mus musculus [12], this compound yielded a maximal tolerated dose (MTD) of 600 mg/kg.
